Source: patent US20240033370A1, “ANTI-PD-L1 IMMUNOCONJUGATES, AND USES THEREOF” (BOLT BIOTHERAPEUTICS, INC., priority 2020, published 2024)

What was measured:
human TLR7 = human TLR7 (Homo sapiens (Human), UniProt Q9NYK1); assay: HEK293 NFKB reporter assay, human TLR7; format: cell-based; conditions: HEK293 reporter cells expressing human TLR7; read-out: HEK293 hTLR7 EC50
Protocol: (§1) Each compound was synthesized, purified, and characterized by mass spectrometry and shown to have the mass indicated. Additional experimental procedures are found in the Examples. Activity against HEK293 NFKB reporter cells expressing human TLR7 or human TLR8 was measured according to Example 202.
(§2) HEK293 reporter cells expressing human TLR7 or human TLR8 were purchased from Invivogen and vendor protocols were followed for cellular propagation and experimentation. Briefly, cells were grown to 80-85% confluence at 5% CO2 in DMEM supplemented with 10% FBS, Zeocin, and Blasticidin. Cells were then seeded in 96-well flat plates at 4×10^4 cells/well with substrate containing HEK detection medium and immunostimulatory molecules. Activity was measured using a plate reader at 620-655 nm wavelength.

human TLR8 = human TLR8 (Homo sapiens (Human), UniProt Q9NR97); assay: HEK293 NFKB reporter assay, human TLR8; format: cell-based; conditions: HEK293 reporter cells expressing human TLR8; read-out: HEK293 hTLR8 EC50
Protocol: as §1, §2

Sequence of human TLR8 (Q9NR97 27-1041): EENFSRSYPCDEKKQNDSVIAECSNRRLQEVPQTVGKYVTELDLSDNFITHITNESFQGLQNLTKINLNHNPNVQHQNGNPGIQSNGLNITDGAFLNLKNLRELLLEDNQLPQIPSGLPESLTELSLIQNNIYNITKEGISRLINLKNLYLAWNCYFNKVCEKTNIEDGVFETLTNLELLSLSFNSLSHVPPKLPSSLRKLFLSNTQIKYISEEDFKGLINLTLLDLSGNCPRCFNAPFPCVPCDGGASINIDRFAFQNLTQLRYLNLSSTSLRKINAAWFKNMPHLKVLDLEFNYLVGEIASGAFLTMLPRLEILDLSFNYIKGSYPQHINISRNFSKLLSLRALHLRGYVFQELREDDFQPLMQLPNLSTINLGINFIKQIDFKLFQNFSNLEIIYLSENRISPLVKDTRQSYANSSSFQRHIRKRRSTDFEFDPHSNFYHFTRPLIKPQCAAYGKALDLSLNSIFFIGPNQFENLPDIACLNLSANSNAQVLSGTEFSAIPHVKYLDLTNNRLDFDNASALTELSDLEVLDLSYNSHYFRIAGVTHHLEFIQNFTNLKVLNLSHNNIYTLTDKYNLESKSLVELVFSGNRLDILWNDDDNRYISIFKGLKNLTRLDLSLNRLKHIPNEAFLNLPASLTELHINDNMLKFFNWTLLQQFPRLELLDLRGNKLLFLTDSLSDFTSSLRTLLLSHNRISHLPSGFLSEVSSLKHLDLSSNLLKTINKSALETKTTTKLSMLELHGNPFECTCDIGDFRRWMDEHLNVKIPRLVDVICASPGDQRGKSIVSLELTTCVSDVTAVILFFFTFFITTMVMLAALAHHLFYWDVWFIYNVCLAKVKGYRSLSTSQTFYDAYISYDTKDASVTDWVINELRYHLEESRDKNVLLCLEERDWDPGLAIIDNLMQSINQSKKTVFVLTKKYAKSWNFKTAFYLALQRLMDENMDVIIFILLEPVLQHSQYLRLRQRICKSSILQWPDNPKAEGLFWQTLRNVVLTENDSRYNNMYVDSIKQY
Sequence of human TLR7 (Q9NYK1 27-1049): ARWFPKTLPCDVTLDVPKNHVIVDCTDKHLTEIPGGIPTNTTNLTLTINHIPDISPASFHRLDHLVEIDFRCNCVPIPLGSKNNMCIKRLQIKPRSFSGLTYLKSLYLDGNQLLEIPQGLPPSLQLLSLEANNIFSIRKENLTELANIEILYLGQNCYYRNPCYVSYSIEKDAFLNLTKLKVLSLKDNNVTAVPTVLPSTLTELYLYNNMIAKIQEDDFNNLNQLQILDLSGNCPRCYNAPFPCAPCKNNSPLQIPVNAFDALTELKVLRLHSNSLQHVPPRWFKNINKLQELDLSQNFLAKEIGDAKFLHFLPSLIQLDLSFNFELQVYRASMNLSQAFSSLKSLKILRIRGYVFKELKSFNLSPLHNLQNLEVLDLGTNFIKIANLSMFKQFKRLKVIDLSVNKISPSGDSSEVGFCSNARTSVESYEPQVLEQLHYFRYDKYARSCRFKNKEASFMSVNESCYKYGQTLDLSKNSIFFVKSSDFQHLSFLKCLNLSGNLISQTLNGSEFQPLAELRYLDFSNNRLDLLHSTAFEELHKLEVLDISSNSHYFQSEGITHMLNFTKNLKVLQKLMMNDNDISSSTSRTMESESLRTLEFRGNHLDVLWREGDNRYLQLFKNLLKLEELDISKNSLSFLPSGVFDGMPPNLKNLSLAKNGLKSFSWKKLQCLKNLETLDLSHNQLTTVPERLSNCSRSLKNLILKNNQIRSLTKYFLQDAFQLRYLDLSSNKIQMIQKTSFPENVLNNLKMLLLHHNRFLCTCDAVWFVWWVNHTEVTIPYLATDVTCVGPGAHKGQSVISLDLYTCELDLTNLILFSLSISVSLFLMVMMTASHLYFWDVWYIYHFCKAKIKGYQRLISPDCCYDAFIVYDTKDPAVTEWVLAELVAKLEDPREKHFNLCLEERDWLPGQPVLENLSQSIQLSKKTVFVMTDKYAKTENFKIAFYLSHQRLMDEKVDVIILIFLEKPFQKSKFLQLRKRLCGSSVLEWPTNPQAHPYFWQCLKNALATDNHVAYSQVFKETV

SMILES | EC50 (human TLR7) | EC50 (human TLR8)
CCCN(CC1CNC(=O)CO1)C(=O)C1=Cc2ccc(-c3cnc(CN)nc3)cc2N=C(N)C1 (centres unmarked) [CycBz-42] | 9 µM | 9 µM
CCCN(OCC)C(=O)C1=Cc2ccc(-c3cc(CN)ncn3)cc2N=C(N)C1 [CycBz-48] | 9 µM | 2.16 µM
CCCN(CCCO)C(=O)C1=Cc2ccc(-c3cnc(CN)nc3)cc2N=C(N)C1 [CycBz-26] | 9 µM | 9 µM
CCCN(OCCNC(=O)NC1COC1)C(=O)C1=Cc2ccc(-c3cnc(CN)nc3)cc2N=C(N)C1 [CycBz-17] | 9 µM | 9 µM
CCCN(C(=O)C1=Cc2ccc(-c3cnc(CN)nc3)cc2N=C(N)C1)[C@H]1C[C@H](NC(=O)OC2CCC2)C1 [CycBz-44] | 9 µM | 
CCCN(OCC(F)(F)F)C(=O)C1=Cc2ccc(-c3cccc(S(=O)(=O)N4CC(CN)C4)c3)cc2N=C(N)C1 [CycBz-49] | 3.93 µM | 0.461 µM
CCCN(CC1CNC(=O)O1)C(=O)C1=Cc2ccc(-c3cnc(CN)nc3)cc2N=C(N)C1 (centres unmarked) [CycBz-25] | 9 µM | 
CCCN(OCCO)C(=O)C1=Cc2ccc(-c3cncc(S(=O)(=O)N4CC(CN)C4)c3)cc2N=C(N)C1 [CycBz-43] | 9 µM | 
CCCN(OCC1COC(=O)N1)C(=O)C1=Cc2ccc(-c3cnc(CN)nc3)cc2N=C(N)C1 (centres unmarked) [CycBz-46] | 9 µM | 
CCCN(OCC)C(=O)C1=Cc2ccc(-c3ncc(CN)cn3)cc2N=C(N)C1 [CycBz-10] | 9 µM | 

Further lines, results first:

EC50 (human TLR7) | EC50 (human TLR8) | SMILES
9 µM | 4.19 µM | CCCN(OCC)C(=O)C1=Cc2ccc(-c3cccc(S(=O)(=O)N4CC(CNC(=O)C5CCNCC5)C4)c3)cc2N=C(N)C1 [CycBz-51]
4.75 µM | 0.086 µM | CCCN(OCC)C(=O)C1=Cc2ccc(-c3ccc(C(=O)N[C@H](C)C(=O)OC(C)(C)C)cc3)cc2N=C(N)C1 [CycBz-75]
1.92 µM | 0.012 µM | CCCN(OCC)C(=O)C1=Cc2ccc(-c3ccc(C(=O)N[C@@H](C)C(=O)OC(C)(C)C)cc3)cc2N=C(N)C1 [CycBz-74]
3.43 µM | 0.097 µM | CCCN(OCC)C(=O)C1=Cc2ccc(-c3ccc(C(=O)N4CCC[C@@H]4C(=O)OC)cc3)cc2N=C(N)C1 [CycBz-64]
3.09 µM | 0.86 µM | CCCN(OCC)C(=O)C1=Cc2ccc(-c3ccc(C(=O)N4CCC(N)C4)cc3)cc2N=C(N)C1 (centres unmarked) [CycBz-54]
0.047 µM | 0.006 µM | CCCN(OCC)C(=O)C1=Cc2ccc(-c3ccc(C(=O)N4CCC[C@H]4C(=O)OC)cc3)cc2N=C(N)C1 [CycBz-59]
9 µM | 4.91 µM | CCCN(CCO)C(=O)C1=Cc2ccc(-c3cccc(S(=O)(=O)N4CC(CN)C4)c3)cc2N=C(N)C1 [CycBz-68]
2.31 µM | 1.56 µM | CCCN(CCCNC(=O)OC1CCC1)C(=O)C1=Cc2ccc(-c3cccc(S(=O)(=O)N4CC(CN)C4)c3)cc2N=C(N)C1 [CycBz-65]
7.15 µM | 0.374 µM | CCCN(CCCO)C(=O)C1=Cc2ccc(-c3cccc(S(=O)(=O)N4CC(CNC(=O)OC(C)(C)C)C4)c3)cc2N=C(N)C1 [CycBz-58]
9 µM | 3.61 µM | CCCN(CCCO)C(=O)C1=Cc2ccc(-c3cccc(S(=O)(=O)N4CC(CN)C4)c3)cc2N=C(N)C1 [CycBz-63]
5.76 µM | 0.629 µM | CCCN(OCC)C(=O)C1=Cc2ccc(-c3ccc(C(=O)OC)cc3)cc2N=C(N)C1 [CycBz-52]
3.01 µM | 0.256 µM | CCCN(OCC)C(=O)C1=Cc2ccc(-c3ccc(C(=O)N4CCCC4)cc3)cc2N=C(N)C1 [CycBz-67]
0.738 µM | 0.163 µM | CCCN(OCCNC(=O)OC1CCC1)C(=O)C1=Cc2ccc(-c3cccc(S(=O)(=O)N4CC(CN)C4)c3)cc2N=C(N)C1 [CycBz-60]
9 µM | 9 µM | CCCN(CCCNC(N)=O)C(=O)C1=Cc2ccc(-c3cccc(S(=O)(=O)N4CC(CN)C4)c3)cc2N=C(N)C1 [CycBz-70]
3.68 µM | 0.377 µM | CCCN(OCC)C(=O)C1=Cc2ccc(-c3ccc(C(=O)N4CCC(NC(=O)OC(C)(C)C)C4)cc3)cc2N=C(N)C1 (centres unmarked) [CycBz-55]
9 µM | 4.66 µM | CCCN(CCCCO)C(=O)C1=Cc2ccc(-c3cccc(S(=O)(=O)N4CC(CN)C4)c3)cc2N=C(N)C1 [CycBz-62]
